# Data: patent US9523100B2, “Pesticidal compositions and related methods” (DOW AGROSCIENCES LLC, priority 2013, dated 2016)
# Read-outs that look alike come from different tables or passages of the source.
# What was measured:
# [1] = test system: Sweetpotato Whitefly-Crawler (WF) (Bemisia tabaci) (BEMITA); experiment: Insecticidal test for Sweetpotato Whitefly-Crawler (WF) in foliar spray assay on cotton plants; assay type: in vivo; details: 216 h, read-out: WF 200 ppm, % Control (or Mortality) rating
# Excerpt: Insecticidal Test for Sweetpotato Whitefly-Crawler (WF) (Bemisia tabaci) (BEMITA) in Foliar Spray Assay
# The sweetpotato whitefly (Bemisia tabaci) has been reported as a serious pest of cultivated crops world-wide. It has an extremely wide host range attacking more than 500 species of plants from 63 plant families. Weeds often serve as alternate hosts of crop pests. Direct feeding damage is caused by the piercing and sucking sap from the foliage of plants. This feeding causes weakening and early wilting of the plant and reduces the plant growth rate and yield Indirect damage results by the accumulation of honeydew produced by the whiteflies. Honeydew serves as a substrate for the growth of black sooty mold on leaves and fruit reducing photosynthesis and lessens the market value of the plant or yield. […] The sweetpotato whitefly is considered the most common and important whitefly vector of plant viruses worldwide.
# Cotton plants (Gossypium hirsutum) grown in 3-inch pots, with 1 small (4-5 cm) true leaves, were used as test substrate. The plants were infested with 200-400 whitefly eggs 4-5 days prior to chemical application. Four pots with individual plants were used for each treatment. Test compounds (2 mg) were dissolved in 1 mL of acetone solvent, forming stock solutions of 2000 ppm test compound. The stock solutions were diluted 10× with 0.025% Tween 20 in water (diluents) to obtain the solution at 200 ppm test compound. A hand-held aspirator-type sprayer was used for spraying a solution to both sides of cotton leaves until runoff. Reference plants (solvent check) were sprayed with the diluent only containing 10% by volume of acetone solvent. Treated plants were held in a holding room for 9 days at approximately 25° C. and ambient relative humidity (RH) prior to grading. Evaluation was conducted by counting the number of live 3-4 nymph stage per plant under a microscope. Percent control was measured by using Abbott's correction formula (W. S. Abbott, “A Method of Computing the Effectiveness of an Insecticide” J. Econ. Entomol. 18 (1925), pp. 265-267) as follows.
# Biological Data for Green Peach Aphid (GPA) (MYZUPE) and Sweetpotato Whitefly-Crawler (WF) (BEMITA)” (see table section). Corrected % Control=100*(X−Y)/X
# X=No. of live nymphs on solvent check plants and
# Y=No. of live nymphs on treated plants
# (§1) The mortality efficiency of the pesticidal compounds against GPA and WF insects was determined after treatment.
# [2] = test system: Green Peach Aphid (GPA) (Myzus persicae) (MYZUPE); experiment: Bioassay for Green Peach Aphid (GPA), foliar spray on cabbage seedlings; assay type: in vivo; details: 72 h, read-out: GPA 200 ppm, % Control (or Mortality) rating
# Excerpt: Bioassay for Green Peach Aphid (GPA) (Myzus persicae) (MYZUPE)
# The green peach aphid (Myzus persicae) is the most significant aphid pest of peach trees, causing decreased growth, shriveling of the leaves, and the death of various tissues. It is also hazardous because it acts as a vector for the transport of plant viruses, such as potato virus Y and potato leafroll virus to members of the nightshade/potato family Solanaceae, and various mosaic viruses to many other food crops. GPA attacks such plants as broccoli, burdock, cabbage, carrot, cauliflower, daikon, eggplant, green beans, lettuce, macadamia, papaya, peppers, sweet potatoes, tomatoes, watercress, and zucchini, among other plants GPA also attacks many ornamental crops such as carnation, chrysanthemum, flowering white cabbage, poinsettia, and roses. GPA has developed resistance to many pesticides.
# Cabbage seedlings grown in 3-inch pots, with 2-3 small (3-5 cm) true leaves, were used as test substrate. The seedlings were infested with 20-50 GPA (wingless adult and nymph stages) one day prior to chemical application. Four pots with individual seedlings were used for each treatment. Test compounds (2 mg) were dissolved in 2 mL of acetone/methanol (1:1) solvent, forming stock solutions of 1000 ppm test compound. The stock solutions were diluted 5× with 0.025% Tween 20 in water to obtain the solution at 200 ppm test compound. A hand-held aspirator-type sprayer was used for spraying a solution to both sides of […] leaves until runoff. Reference plants (solvent check) were sprayed with the diluent only containing 20% by volume of acetone/methanol (1:1) solvent. Treated plants were held in a holding room for three days at approximately 25° C. and ambient relative humidity (RH) prior to grading. Evaluation was conducted by counting the number of live aphids per plant under a microscope. Percent control was measured by using Abbott's correction formula (W. S. Abbott, “A Method of Computing the Effectiveness of an Insecticide” J. Econ. Entomol. 18 (1925), pp. 265-267) as follows. Corrected % Control=100*(X−Y)/X
# X=No. of live aphids on solvent check plants and
# Y=No. of live aphids on treated plants
# Biological Data for Green Peach Aphid (GPA) (MYZUPE) and Sweetpotato Whitefly-Crawler (WF) (BEMITA)” (see table section).
# as §1
# [3] = 200 ppm foliar spray on cotton plants, graded after 9 days, Abbott corrected % control
# [4] = 200 ppm foliar spray on cabbage seedlings, graded after three days, Abbott corrected % control
SMILES,"mortality at 200 ppm [1, 3] [%]","mortality at 200 ppm [2, 4] [%]",mortality at 200 ppm ([2]; foliar) [%],mortality at 200 ppm ([1]; foliar) [%]
"CON=C(C)CCC(=O)N(C)c1cn(-c2cccnc2)nc1Cl (mixture of isomers) [Compound F60, (E/Z)-N-(3-Chloro-1-(pyridin-3-yl)-1H-pyrazol-4-yl)-4-(methoxyimino)-N-methylpentanamide]",80 to 100,80 to 100,–,–
"CCN(C(=O)CC/C(C)=N/OCC1CC1(F)F)c1cn(-c2cccnc2)nc1Cl (mixture of isomers) [Compound F72, (E/Z)-N-(3-chloro-1-(pyridin-3-yl)-1H-pyrazol-4-yl)-4-(((2,2-difluorocyclopropyl)methoxy)imino)-N-ethylpentanamide]",80 to 100,80 to 100,–,–
"CCN(C(=O)CCC(C)=NOC)c1cn(-c2cccnc2)nc1Cl (mixture of isomers) [Compound F92, (E/Z)-N-(3-chloro-1-(pyridin-3-yl)-1H-pyrazol-4-yl)-N-ethyl-4-(methoxyimino) pentanamide]",80 to 100,80 to 100,–,–
"CC(CCC(=O)N(C)c1cn(-c2cccnc2)nc1Cl)=NOC(C)C (mixture of isomers) [Compound F130, (E/Z)-N-(3-Chloro-1-(pyridin-3-yl)-1H-pyrazol-4-yl)-4-(isopropoxyimino)-N-methylpentanamide]",80 to 100,80 to 100,–,–
"CCN(C(=O)CCC=NOCCC1CC1(F)F)c1cn(-c2cccnc2)nc1Cl (mixture of isomers) [FA61, (E/Z)-N-(3-Chloro-1-(pyridin-3-yl)-1H-pyrazol-4-yl)-4-((2-(2,2-difluorocyclopropyl)ethoxy)imino)-N-ethylbutanamide]",80 to 100,80 to 100,–,–
"C=CCC(C)C(=O)N(CC)c1cn(-c2cccnc2)nc1Cl (stereo not shown) [CA1, N-[3-Chloro-1-(3-pyridyl)pyrazol-4-yl]-N-ethyl-2-methyl-pent-4-enamide]",–,80 to 100,–,–
"CCN(C(=O)CCl)c1cn(-c2cccnc2)nc1Cl [CA2, 2-Chloro-N-[3-chloro-1-(3-pyridyl)pyrazol-4-yl]-N-ethyl-acetamide]",80 to 100,0 to 80,–,–
"CCN(C(=O)CCC(=O)O)c1cn(-c2cccnc2)nc1Cl [Compound C1, 4-((3-chloro-1-(pyridin-3-yl)-1H-pyrazol-4-yl)(ethyl)amino)-4-oxobutanoic acid]",0 to 80,< 0,–,–
"CCN(C(=O)CCN)c1cn(-c2cccnc2)nc1Cl [Compound C2, 3-amino-N-(3-chloro-1-(pyridin-3-yl)-1H-pyrazol-4-yl)-N-ethylpropanamide]",80 to 100,0 to 80,–,–
"CC(C)(C)[Si](C)(C)N1CC(CC(=O)O)C1=O (stereo not shown) [Compound C3, 2-(1-(tert-butyldimethylsilyl)-2-oxoacetidin-3-yl)acetic acid]",–,–,0 to 80,–
"CC(C)(C)[Si](C)(C)N1CC(CCC(=O)O)C1=O (stereo not shown) [Compound C4, 3-(1-(tert-Butyldimethylsilyl)-2-oxoazetidin-3-yl)propanoic acid]",–,–,0 to 80,–
"CC(C)(C)[Si](C)(C)N1CC(CCCC(=O)O)C1=O (stereo not shown) [Compound C5, 4-(1-(tert-Butyldimethylsilyl)-2-oxoazetidin-3-yl)butanoic acid]",–,–,0 to 80,< 0
"CCN(C(=O)C(C)Cl)c1cn(-c2cccnc2)nc1Cl (stereo not shown) [Compound C10, 2-Chloro-N-(3-chloro-1-(pyridin-3-yl)-1H-pyrazol-4-yl)-N-ethylpropanamide]",80 to 100,80 to 100,–,–
"CCN(C(=O)CCNC)c1cn(-c2cccnc2)nc1Cl [Compound C11, N-(3-chloro-1-(pyridin-3-yl)-1H-pyrazol-4-yl)-N-ethyl-3-(methylamino)propanamide]",80 to 100,0 to 80,–,–
"CCN(C(=O)C(C)OC(C)=O)c1cn(-c2cccnc2)nc1Cl (stereo not shown) [Compound C12, 1-((3-chloro-1-(pyridin-3-yl)-1H-pyrazol-4-yl)(ethyl)amino)-1-oxopropan-2-yl acetate]",80 to 100,80 to 100,–,–
"CCN(C(=O)C(C)O)c1cn(-c2cccnc2)nc1Cl (stereo not shown) [Compound C13, N-(3-chloro-1-(pyridin-3-yl)-1H-pyrazol-4-yl)-N-ethyl-2-hydroxypropanamide]",80 to 100,80 to 100,–,–
"CCN(C(=O)CCNCC(F)F)c1cn(-c2cccnc2)nc1Cl [Compound C14, N-(3-chloro-1-(pyridin-3-yl)-1H-pyrazol-4-yl)-3-((2,2-difluoroethyl)amino)-N-ethylpropanamide]",80 to 100,80 to 100,–,–
"CCN(C(=O)CNC(=O)C1(C)CC1(F)F)c1cn(-c2cccnc2)nc1Cl (stereo not shown) [Compound F1, N-(2-((3-Chloro-1-(pyridin-3-yl)-1H-pyrazol-4-yl)(ethyl)amino)-2-oxoethyl)-2,2-difluoro-1-methylcyclopropanecarboxamide]",80 to 100,80 to 100,–,–
"CCN(C(=O)CNC(=O)OC(C)(C)C)c1cn(-c2cccnc2)nc1Cl [Compound F2, tert-Butyl (2-((3-chloro-1-(pyridin-3-yl)-1H-pyrazol-4-yl)(ethyl)amino)-2-oxoethyl)carbamate]",80 to 100,80 to 100,–,–
"CCN(C(=O)CC/C(C)=N/OCC1CC(F)(F)C1)c1cn(-c2cccnc2)nc1Cl [FA21, (E/Z)-N-(3-Chloro-1-(pyridin-3-yl)-1H-pyrazol-4-yl)-4-(((3,3-difluorocyclobutyl)methoxy)imino)-N-ethylpentanamide]",–,0 to 80,–,–
"CCN(C(=O)CC/C(C)=N/OCc1noc(C(C)(C)C)n1)c1cn(-c2cccnc2)nc1Cl [FA23, (E/Z)-4-(((5-(tert-Butyl)-1,2,4-oxadiazol-3-yl)methoxy)imino)-N-(3-chloro-1-(pyridin-3-yl)-1H-pyrazol-4-yl)-N-ethylpentanamide]",–,0 to 80,–,–
"CCN(C(=O)CC/C(C)=N/OCc1ncc(C(F)(F)F)cc1Cl)c1cn(-c2cccnc2)nc1Cl [FA24, (E/Z)-N-(3-Chloro-1-(pyridin-3-yl)-1H-pyrazol-4-yl)-4-(((3-chloro-5-(trifluoromethyl)pyridin-2-yl)methoxy)imino)-N-ethylpentanamide]",–,0 to 80,–,–
"CCN(C(=O)CC/C(C)=N/OCc1c(C)noc1C)c1cn(-c2cccnc2)nc1Cl [FA25, (E/Z)-N-(3-Chloro-1-(pyridin-3-yl)-1H-pyrazol-4-yl)-4-(((3,5-dimethylisoxazol-4-yl)methoxy)imino)-N-ethylpentanamide]",–,0 to 80,–,–
"CCN(C(=O)C(C)C/C(C)=N/OCCC1CC1(F)F)c1cn(-c2cccnc2)nc1Cl (stereo not shown) [FA58, (E)-N-(3-Chloro-1-(pyridin-3-yl)-1H-pyrazol-4-yl)-4-((2-(2,2-difluorocyclopropyl)ethoxy)imino)-N-ethyl-2-methylpentanamide]",–,80 to 100,–,–
